According to ChEMBL document CHEMBL4152309, “N-phenylsulfonyl-3,5-bis(arylidene)-4-piperidone derivatives as activation NF-κB inhibitors in hepatic carcinoma cell lines” (Eur J Med Chem, 2018):
Calls of active or inactive are those of the source.

How the values were obtained:
[1] = target: Transcription factor p65 (Mus musculus) (UniProt Q04207); assay: Inhibition of LPS-stimulated NFkappaB p65 nuclear translocation in mouse RAW264.7 cells at 5 uM pretreated for 2 hrs followed by LPS-stimulation and measured after 15 mins by DAPI staining based microscopic analysis; format: cell-based
Chain of Transcription factor p65 (Mus musculus) (Q04207 whole entry): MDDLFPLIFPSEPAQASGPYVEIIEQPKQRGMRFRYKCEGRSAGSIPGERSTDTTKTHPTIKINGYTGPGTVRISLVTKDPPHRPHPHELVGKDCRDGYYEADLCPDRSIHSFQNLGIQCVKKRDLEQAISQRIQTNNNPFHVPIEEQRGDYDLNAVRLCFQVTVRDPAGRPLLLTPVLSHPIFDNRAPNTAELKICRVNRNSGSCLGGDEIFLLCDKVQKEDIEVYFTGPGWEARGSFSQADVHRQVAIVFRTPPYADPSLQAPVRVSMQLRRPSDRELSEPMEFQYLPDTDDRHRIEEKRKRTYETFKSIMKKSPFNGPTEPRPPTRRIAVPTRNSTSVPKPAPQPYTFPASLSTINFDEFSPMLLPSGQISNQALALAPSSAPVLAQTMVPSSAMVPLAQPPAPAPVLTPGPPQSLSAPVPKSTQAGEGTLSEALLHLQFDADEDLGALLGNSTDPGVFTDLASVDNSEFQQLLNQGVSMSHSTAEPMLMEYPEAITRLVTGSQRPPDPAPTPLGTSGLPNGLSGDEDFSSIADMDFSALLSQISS

RAW264.7 [2] = assay: Inhibition of LPS-stimulated NFkappaB activation in mouse RAW264.7 cells assessed as reduction in p65 phosphorylation at 1 to 10 uM pretreated for 2 hrs followed by LPS-stimulation and measured after 15 mins by Western blot method; format: cell-based
SMMC-7721 [3] = assay: Cytotoxicity against human SMMC7721 cells assessed as reduction in cell viability after 24 hrs by MTT assay; format: functional, cell-based
HepG2 [4] = assay: Induction of apoptosis in human HepG2 cells assessed as decrease in Bcl2 expression after 24 hrs by Western blot analysis; format: functional, cell-based
HepG2 [5] = assay: Inhibition of TNFalpha-stimulated NFkappaB activation in human HepG2 cells assessed as reduction in IkappaB phosphorylation pretreated for 2 hrs followed by LPS-stimulation and measured after 15 mins by Western blot method; format: cell-based
HepG2 [6] = assay: Inhibition of TNFalpha-stimulated NFkappaB activation in human HepG2 cells assessed as reduction in p65 phosphorylation pretreated for 2 hrs followed by LPS-stimulation and measured after 15 mins by Western blot method; format: cell-based
SMMC-7721 [7] = assay: Induction of apoptosis in human SMMC7721 cells assessed as increase in early apoptotic cells after 24 hrs by Annexin-V-FITC/propidium iodide staining based flow cytometry; format: functional, cell-based
HepG2 [8] = assay: Cytotoxicity against human HepG2 cells assessed as reduction in cell viability after 24 hrs by MTT assay; format: functional, cell-based
HepG2 [9] = assay: Induction of apoptosis in human HepG2 cells assessed as increase in cleaved caspase 3 expression after 24 hrs by Western blot analysis; format: functional, cell-based
QGY-7703 [10] = assay: Induction of apoptosis in human QGY7703 cells assessed as increase in late apoptotic cells after 24 hrs by Annexin-V-FITC/propidium iodide staining based flow cytometry; format: functional, cell-based
[11] = target: Transcription factor p65 (Homo sapiens) (UniProt Q04206); assay: Inhibition of TNFalpha-stimulated NFkappaB p65 nuclear translocation in human HepG2 cells at 5 uM pretreated for 2 hrs followed by LPS-stimulation and measured after 15 mins by DAPI staining based microscopic analysis; format: cell-based
Chain of Transcription factor p65 (Homo sapiens) (Q04206 whole entry): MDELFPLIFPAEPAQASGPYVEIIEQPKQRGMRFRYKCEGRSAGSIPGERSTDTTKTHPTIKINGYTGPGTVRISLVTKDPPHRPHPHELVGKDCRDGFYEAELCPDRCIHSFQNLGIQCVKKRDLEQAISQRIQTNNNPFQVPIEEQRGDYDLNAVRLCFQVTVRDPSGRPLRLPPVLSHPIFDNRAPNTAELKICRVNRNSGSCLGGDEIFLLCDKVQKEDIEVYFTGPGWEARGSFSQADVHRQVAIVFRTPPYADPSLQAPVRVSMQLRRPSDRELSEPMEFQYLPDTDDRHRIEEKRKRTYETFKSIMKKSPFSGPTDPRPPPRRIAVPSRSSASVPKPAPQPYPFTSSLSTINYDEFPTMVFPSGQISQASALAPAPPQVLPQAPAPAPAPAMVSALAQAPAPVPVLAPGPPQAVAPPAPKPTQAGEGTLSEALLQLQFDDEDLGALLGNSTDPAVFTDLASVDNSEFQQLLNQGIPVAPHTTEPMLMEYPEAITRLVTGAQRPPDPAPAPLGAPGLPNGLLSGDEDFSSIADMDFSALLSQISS

HepG2 [12] = assay: Induction of apoptosis in human HepG2 cells assessed as increase in Bax expression after 24 hrs by Western blot analysis; format: functional, cell-based
RAW264.7 [13] = assay: Inhibition of LPS-stimulated NFkappaB activation in mouse RAW264.7 cells assessed as reduction in IkappaB phosphorylation at 1 to 10 uM pretreated for 2 hrs followed by LPS-stimulation and measured after 15 mins by Western blot method; format: cell-based
[14] = Cytotoxicity against mouse RAW264.7 cells assessed as cell viability at 10 uM after 24 hrs by MTT assay relative to control; format: cell-based; conditions: read-out: Activity
QGY-7703 [15] = assay: Cytotoxicity against human QGY7703 cells assessed as reduction in cell viability after 24 hrs by MTT assay; format: functional, cell-based
L02 = assay: Cytotoxicity against human LO2 cells assessed as reduction in cell viability after 24 hrs by MTT assay; format: cell-based; conditions: L02, 24 h
SMMC-7721 [16] = assay: Induction of apoptosis in human SMMC7721 cells assessed as increase in late apoptotic cells after 24 hrs by Annexin-V-FITC/propidium iodide staining based flow cytometry; format: functional, cell-based
[17] = Cytotoxicity against human HHL5 cells assessed as reduction in cell viability after 24 hrs by MTT assay; format: cell-based; conditions: HHL-5, 24 h
HepG2 [18] = assay: Induction of apoptosis in human HepG2 cells assessed as increase in late apoptotic cells after 24 hrs by Annexin-V-FITC/propidium iodide staining based flow cytometry; format: functional, cell-based
RAW264.7 [19] = assay: Anti-inflammatory activity in mouse RAW264.7 cells assessed as inhibition of LPS-induced TNFalpha secretion at 10 uM pretreated for 2 hrs followed by LPS stimulation and measured after 22 hrs by ELISA; format: functional, cell-based
HepG2 [20] = assay: Induction of apoptosis in human HepG2 cells assessed as increase in early apoptotic cells after 24 hrs by Annexin-V-FITC/propidium iodide staining based flow cytometry; format: functional, cell-based
RAW264.7 [21] = assay: Anti-inflammatory activity in mouse RAW264.7 cells assessed as inhibition of LPS-induced IL-6 secretion at 10 uM pretreated for 2 hrs followed by LPS stimulation and measured after 22 hrs by ELISA; format: functional, cell-based
QGY-7703 [22] = assay: Induction of apoptosis in human QGY7703 cells assessed as increase in early apoptotic cells after 24 hrs by Annexin-V-FITC/propidium iodide staining based flow cytometry; format: functional, cell-based

COc1cc(/C=C2\CN(S(=O)(=O)c3ccc(NC(C)=O)cc3)C/C(=C\c3ccc(C#N)cc3)C2=O)cc(OC)c1OC
1730 nM: IC50 (SMMC-7721 [3]; SMMC-7721, 24 h)
1890 nM: IC50 (QGY-7703 [15]; QGY-7703, 24 h)
active: inhibition [1] | inhibition (RAW264.7 [2]) | Activity (SMMC-7721 [3]) Dose-dependent effect | Activity (HepG2 [4]) Dose-dependent effect | inhibition (HepG2 [5]) Dose-dependent effect | inhibition (HepG2 [6]) Dose-dependent effect | Activity (SMMC-7721 [7]) Dose-dependent effect | Activity (HepG2 [8]) Dose-dependent effect | Activity (HepG2 [9]) Dose-dependent effect | Activity (QGY-7703 [10]) Dose-dependent effect | inhibition [11] | Activity (HepG2 [12]) Dose-dependent effect | inhibition (RAW264.7 [13]) | Activity (QGY-7703 [15]) Dose-dependent effect | Activity (SMMC-7721 [16]) Dose-dependent effect | Activity (HepG2 [18]) Dose-dependent effect | inhibition (RAW264.7 [19]) | Activity (HepG2 [20]) Dose-dependent effect | inhibition (RAW264.7 [21]) | Activity (QGY-7703 [22]) Dose-dependent effect
> 80%: viability at 24 h, 10 µM [14]
2890 nM: IC50 (HepG2 [8]; HepG2, 24 h)
13600 nM: IC50 (L02) | IC50 [17]
